Experiments:
[1] = O'Malley et al. 2021; cited from earlier work
MAO-B = target: T1, MAO-B (Homo sapiens, UniProt P27338); test: MAO-B inhibition assay; assay type: biochemical; conditions: 20 min pre-incubation; 10 μM = highest concentration tested; read-out: Enzymatic Assays IC50 MAO-B
T1 sequence (P27338 1-520): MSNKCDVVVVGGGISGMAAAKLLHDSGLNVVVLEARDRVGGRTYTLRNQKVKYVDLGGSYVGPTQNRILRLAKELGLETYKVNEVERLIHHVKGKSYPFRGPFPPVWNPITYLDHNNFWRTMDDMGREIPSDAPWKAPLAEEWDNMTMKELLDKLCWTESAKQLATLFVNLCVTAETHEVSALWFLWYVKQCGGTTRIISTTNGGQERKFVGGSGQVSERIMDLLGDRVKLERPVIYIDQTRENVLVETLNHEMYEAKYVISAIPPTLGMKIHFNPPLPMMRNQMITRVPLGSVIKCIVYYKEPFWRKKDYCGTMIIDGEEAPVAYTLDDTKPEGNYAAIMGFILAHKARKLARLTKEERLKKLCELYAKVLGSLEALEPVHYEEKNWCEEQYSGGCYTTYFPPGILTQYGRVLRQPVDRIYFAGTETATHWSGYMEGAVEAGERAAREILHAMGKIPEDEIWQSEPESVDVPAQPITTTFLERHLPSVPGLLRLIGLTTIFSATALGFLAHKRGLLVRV
Protocol: (§1) D. MAO-A and MAO-B inhibition assays: MAO assays included luminogenic MAO substrate, reaction buffers, Luciferin Detection, and a reconstitution buffer with esterase. The MAO reaction mixture used in the assay included microsome contained MAO-A (2 μg) or MAO-B (10 μg), 160 μM substrate for MAO-A or 16 μM substrate for MAO-B, MAO-A buffer (100 mM Hepes buffer, pH 7.5, 5% glycerol) or MAO-B buffer (100 mM Hepes, pH 7.5, 5% glycerol, 10% dimethyl sulfoxide) in a final volume of 30 μL. After 20 minutes of pre-incubation of the MAO-A or MAO-B enzyme with the test ALDH-2 inhibitor compound, the reaction was initiated by adding enzyme substrate and the […] reaction was allowed to proceed for 60 minutes. Reconstituted Luciferin Detection Reagent (30 μL) was then added is added to simultaneously stop the MAO reaction and convert the methyl ester derivative to luciferin and produce light. The amount of light produced is directly proportional to the activity of MAO. The mixtures were further incubated for 20 minutes and activity of the enzyme was determined using Perkin-Elmer Envision Reader.

HepaRG spheroids = test: HepaRG 3D spheroid assay; assay type: cell-based; conditions: minimum effective concentration crossing vehicle control threshold of cell health marker; 100 μM = highest concentration tested
Excerpt: See e.g., Walker et al., “The evolution of strategies to minimise the risk of human drug-induced liver injury (DILI) in drug discovery and development,” (2020) Archives of Toxicology, Vol. 94: 2559-2585, which is hereby incorporated by reference herein in its entirety. […] In applying the HepaRG spheroid assay analysis to determining the hepatoxic liability of ALDH-2 inhibitor compounds, consideration is made of the binding to plasma protein and the limitations to CNS penetration due to the blood-brain barrier.
E. HepaRG® 3D spheroid assay: The HepaRG 3D spheroid assay is described in Walker et al., “The evolution of strategies to minimise the risk of human drug-induced liver injury (DILI) in drug discovery and development,” (2020) Archives of Toxicology, Vol. 94: 2559-2585. Briefly, HepaRG® cells were seeded into ultra-low adhesion 96-well black walled clear bottomed spheroid microplates. […] At the end of the incubation period, the spheroids were loaded with the relevant dye/antibody for each cell health marker (spheroid count, spheroid size, DNA structure, mitochondrial mass, mitochondrial membrane potential, oxidative stress, glutathione content, and cellular ATP). The plates were then scanned using an automated fluorescent cellular imager, ArrayScan® (Thermo Scientific Cellomics).

MAO-A = target: T2, MAO-A (Homo sapiens, UniProt P21397); test: MAO-A inhibition assay; assay type: biochemical; conditions: 20 min pre-incubation; 10 μM = highest concentration tested; read-out: Enzymatic Assays IC50 MAO-A
T2 sequence (P21397 1-527): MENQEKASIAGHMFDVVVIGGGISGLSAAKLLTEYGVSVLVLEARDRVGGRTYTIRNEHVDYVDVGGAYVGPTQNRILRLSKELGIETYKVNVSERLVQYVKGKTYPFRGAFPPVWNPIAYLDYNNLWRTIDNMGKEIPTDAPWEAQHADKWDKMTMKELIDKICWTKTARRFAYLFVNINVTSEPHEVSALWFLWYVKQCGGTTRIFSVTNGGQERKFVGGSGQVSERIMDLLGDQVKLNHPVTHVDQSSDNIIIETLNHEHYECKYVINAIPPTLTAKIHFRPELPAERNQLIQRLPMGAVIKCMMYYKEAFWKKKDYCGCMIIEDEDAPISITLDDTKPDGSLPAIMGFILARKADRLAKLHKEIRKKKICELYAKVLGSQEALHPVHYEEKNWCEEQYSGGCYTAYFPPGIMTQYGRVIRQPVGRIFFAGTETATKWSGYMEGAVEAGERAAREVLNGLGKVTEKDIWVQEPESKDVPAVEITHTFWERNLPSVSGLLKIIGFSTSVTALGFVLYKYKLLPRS
Protocol: as §1

recombinant human ALDH-2 = target: T3, recombinant human ALDH-2 (Homo sapiens, UniProt P05091); test: ALDH-2 inhibition assay; assay type: biochemical; conditions: 60 min pre-incubation; 10 μM = highest concentration tested; read-out: Enzymatic Assays IC50 ALDH2
T3 sequence (P05091 18-517): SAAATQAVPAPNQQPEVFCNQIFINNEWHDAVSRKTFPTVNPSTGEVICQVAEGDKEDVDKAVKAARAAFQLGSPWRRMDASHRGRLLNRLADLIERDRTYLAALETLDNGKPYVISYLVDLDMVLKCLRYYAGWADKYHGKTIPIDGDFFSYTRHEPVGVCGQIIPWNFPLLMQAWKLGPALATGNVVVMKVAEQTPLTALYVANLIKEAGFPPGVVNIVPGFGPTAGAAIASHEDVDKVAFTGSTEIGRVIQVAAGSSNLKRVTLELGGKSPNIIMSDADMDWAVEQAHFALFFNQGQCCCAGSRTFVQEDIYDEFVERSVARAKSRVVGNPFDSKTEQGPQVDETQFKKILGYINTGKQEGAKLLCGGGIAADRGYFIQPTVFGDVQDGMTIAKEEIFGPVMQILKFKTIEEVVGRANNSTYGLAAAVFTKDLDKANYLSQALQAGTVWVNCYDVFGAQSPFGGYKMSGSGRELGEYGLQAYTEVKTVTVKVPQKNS
Protocol: A. ALDH-2 inhibition assay: The ALDH-2 reaction mixture used in the assay contained 125 μM formaldehyde, 75 μM NAD+, 20 mM NaCl, 10 mM MgCl2, and 20 nM recombinant human ALDH-2 in 50 mM Hepes buffer, pH 7.5 in a final volume of 10 μL using 384-well Corning 3820 plates. After 60 min of pre-incubation of the test ALDH-2 inhibitor compound with ALDH-2, the reaction was started by adding NAD+ and formaldehyde and the assay reaction mixture was allowed to proceed for 60 minutes. Activity of the ALDH-2 enzyme was determined by monitoring NADH formation using Perkin-Elmer Envision Reader with excitation and emission wavelengths set at 340 and 460 nm, respectively.

recombinant human ALDH-1 = target: T4, recombinant human ALDH-1 (Homo sapiens, UniProt P00352); test: ALDH-1 inhibition assay; assay type: biochemical; conditions: 60 min pre-incubation; 10 μM = highest concentration tested; read-out: Enzymatic Assays IC50 ALDH-1
T4 sequence (P00352 1-501): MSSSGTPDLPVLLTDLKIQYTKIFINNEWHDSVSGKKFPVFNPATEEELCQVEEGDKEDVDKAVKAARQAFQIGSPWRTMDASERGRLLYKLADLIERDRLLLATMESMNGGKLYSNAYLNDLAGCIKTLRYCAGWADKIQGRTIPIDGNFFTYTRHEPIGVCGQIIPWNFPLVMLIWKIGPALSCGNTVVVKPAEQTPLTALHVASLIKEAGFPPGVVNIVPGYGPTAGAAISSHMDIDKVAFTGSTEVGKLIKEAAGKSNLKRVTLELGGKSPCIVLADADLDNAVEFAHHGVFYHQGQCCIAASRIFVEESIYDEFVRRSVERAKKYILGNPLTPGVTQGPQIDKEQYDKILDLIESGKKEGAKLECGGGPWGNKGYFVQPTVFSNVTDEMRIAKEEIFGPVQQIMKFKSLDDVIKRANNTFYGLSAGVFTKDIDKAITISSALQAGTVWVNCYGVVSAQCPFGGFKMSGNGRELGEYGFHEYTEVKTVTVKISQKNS
Protocol: B. ALDH-1 inhibition assay: The ALDH-1 reaction mixture used in the assay contained 100 μM formaldehyde, 2.5 mM NAD+, 20 mM NaCl, 10 mM MgCl2, 1 mM dithiothreitol (DTT; reducing agent), and 50 nM recombinant human ALDH-1 in 50 mM Hepes buffer, pH 7.5 in a final volume of 10 μL using 384-well Corning 3820 plates. After 60 min of pre-incubation of the test ALDH-2 inhibitor compound with ALDH-1, the reaction was started by adding NAD+ and formaldehyde and the assay reaction mixture was allowed to proceed for 60 minutes. Activity of the ALDH-1 enzyme was determined by monitoring NADH formation using Perkin-Elmer Envision Reader with excitation and emission wavelengths set at 340 and 460 nm, respectively.

recombinant human ALDH-3 = target: T5, recombinant human ALDH-3 (Homo sapiens, UniProt P30838); test: ALDH-3 inhibition assay; assay type: biochemical; conditions: 60 min pre-incubation; 10 μM = highest concentration tested; read-out: Enzymatic Assays IC50 ALDH-3
T5 sequence (P30838 1-453): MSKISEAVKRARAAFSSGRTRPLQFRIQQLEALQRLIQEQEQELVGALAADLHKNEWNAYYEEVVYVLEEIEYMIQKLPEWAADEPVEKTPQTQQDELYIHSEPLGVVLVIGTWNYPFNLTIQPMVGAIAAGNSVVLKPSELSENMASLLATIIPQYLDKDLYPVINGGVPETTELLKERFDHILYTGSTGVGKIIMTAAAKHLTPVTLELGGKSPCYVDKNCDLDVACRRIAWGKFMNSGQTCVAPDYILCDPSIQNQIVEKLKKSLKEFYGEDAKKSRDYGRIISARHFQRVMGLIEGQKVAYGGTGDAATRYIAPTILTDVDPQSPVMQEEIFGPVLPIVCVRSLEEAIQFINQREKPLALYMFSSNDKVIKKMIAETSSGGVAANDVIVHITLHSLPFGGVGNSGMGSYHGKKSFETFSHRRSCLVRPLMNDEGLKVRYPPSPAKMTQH
Protocol: ALDH-3 inhibition assay: The ALDH-3 reaction mixture used in the assay contained 200 μM benzaldehyde, 2.5 mM NAD+, 20 mM NaCl, 10 mM MgCl2, and 10 nM recombinant human ALDH-3 in 50 mM Hepes buffer, pH 7.5 in a final volume of 10 μL using 384-well Corning 3820 plates. After 60 min of pre-incubation of the test ALDH-2 inhibitor compound with ALDH-3, the reaction was started by adding NAD+ and benzaldehyde and the assay reaction mixture was allowed to proceed for 60 minutes. Activity of the ALDH-3 enzyme was determined by monitoring NADH formation using Perkin-Elmer Envision Reader with excitation and emission wavelengths set at 340 and 460 nm, respectively.

SMILES	hepatotoxicity in humans [1]	IC50 (MAO-B) [µM]	HepaRG 3D Spheroid MEC (HepaRG spheroids)	IC50 (MAO-A) [µM]	IC50 (recombinant human ALDH-2) [µM]	IC50 (recombinant human ALDH-1) [µM]	IC50 (recombinant human ALDH-3) [µM]
O=C(NCc1ccc(-c2cc[nH]c(=O)c2)cc1)c1c(Cl)cccc1Cl [2,6-dichloro-N-[4-(2-oxo-1,2-dihydro-pyridin-4-yl)-benzyl]-benzamide]	high levels of hepatotoxicity	–	–	–	–	–	–
O=C(NCc1ccc(-c2cccc(=O)[nH]2)nc1)c1c(Cl)cccc1Cl [(1j), 2,6-Dichloro-N-((6′-oxo-1′,6′-dihydro-[2,2′-bipyridin]-5-yl)methyl)benzamide]	–	> 10	5.06 µM	> 10	0.007	> 10	–
Cc1nccc(Cl)c1C(=O)NCc1ccc(-c2[nH]c(=O)ccc2F)cc1 [(1h), 4-Chloro-N-(4-(3-fluoro-6-oxo-1,6-dihydropyridin-2-yl)benzyl)-2-methylnicotinamide]	–	> 10	53.9 µM	> 10	0.1	> 10	–
O=C(NCc1ccc(-c2[nH]c(=O)ccc2F)cc1)c1ccccc1Cl [Compound (1f), 2-Chloro-N-(4-(3-fluoro-6-oxo-1,6-dihydropyridin-2-yl)benzyl)benzamide]	–	> 10	–	> 10	0.329	> 10	> 10
O=C(NCc1ccc(-c2[nH]c(=O)ccc2F)nc1)c1c(Cl)cccc1Cl [(1i), 2,6-dichloro-N-((3′-fluoro-6′-oxo-1′,6′-dihydro-[2,2′-bipyridin]-5-yl)methyl)benzamide]	–	> 10	15.3 µM	> 10	0.004	> 10	–
Cc1nccc(Cl)c1C(=O)NCc1ccc(-c2cccc(=O)[nH]2)nc1 [(1m), 4-Chloro-2-methyl-N-((6′-oxo-1′,6′-dihydro-[2,2′-bipyridin]-5-yl)methyl)nicotinamide]	–	> 10	–	> 10	0.98	> 10	> 10
Cc1cccc(Cl)c1C(=O)NCc1ccc(-c2[nH]c(=O)ccc2F)cc1 [Compound (1e), 2-Chloro-N-(4-(3-fluoro-6-oxo-1,6-dihydropyridin-2-yl)benzyl)-6-methylbenzamide]	–	> 10	50.4 µM	> 10	0.009	> 10	–
Cc1cccc(Cl)c1C(=O)NCc1cnc(-c2cccc(=O)[nH]2)nc1 [(1n), 2-Chloro-6-methyl-N-((2-(6-oxo-1,6-dihydropyridin-2-yl)pyrimidin-5-yl)methyl)benzamide]	–	> 10	7.48 µM	> 10	0.031	> 10	–
O=C(NCc1ccc(-c2[nH]c(=O)ccc2F)cc1)c1c(Cl)cccc1Cl [Compound (1d), 2,6-dichloro-N-(4-(3-fluoro-6-oxo-1,6-dihydropyridin-2-yl)benzyl)benzamide]	–	> 10	No Effect	> 10	0.027	> 10	–
